Measurements: patent US10273503B2, “Compounds and methods for enhancing viral gene transfer to human hematopoietic cells” (UNIVERSTÉ DE MONTRÉAL, priority 2015, dated 2019)

Tested on: human CD34+ cells
Experiment: Expansion of human CD34+ cells (EC50, CD34+CD45RA- cell count)
Type: cell-based
Settings: Homo sapiens, concentration that results in a 50% increase in CD34+CD45RA- cell count compared to vehicle cultures (DMSO); read-out: Biological data (EC50)*

Row | Structure (SMILES) | EC50 [nM]
1 | COC(=O)c1ccc2c(c1)[nH]c1ncnc(NCCCN3CCCCC3)c12 [Cmpd 2] | 250 to 500
2 | COC(=O)c1ccc2c(c1)[nH]c1ncnc(NCCCN3CCCC3)c12 [Cmpd 9] | 100 to 250
3 | COC(=O)c1ccc2c(c1)[nH]c1ncnc(NCCCCN(C)C)c12 [Cmpd 10] | 250 to 500
4 | COC(=O)c1ccc2c(c1)[nH]c1ncnc(NCCN(C)C)c12 [Cmpd 11] | 100 to 250
5 | COC(=O)c1ccc2c(c1)[nH]c1ncnc(NCCCN(C)C)c12 [Cmpd 12] | 500 to 1000
6 | COC(=O)c1ccc2c(c1)[nH]c1ncnc(NCCN3CCCCC3)c12 [Cmpd 13] | 250 to 500
7 | COC(=O)c1ccc2c(c1)[nH]c1ncnc(NCCCN3CCCCC3C)c12 (stereo not drawn) [Cmpd 14] | 100 to 250
8 | COC(=O)c1ccc2c(c1)[nH]c1ncnc(NCCCN)c12 [Cmpd 15] | 250 to 500
9 | COC(=O)c1ccc2c(c1)[nH]c1ncnc(NCC(O)CN3CCCCC3)c12 (stereo not drawn) [Cmpd 16] | 250 to 500
10 | COC(=O)c1ccc2c(c1)[nH]c1ncnc(NC3CCNCC3)c12 [Cmpd 17] | 500 to 1000
11 | COC(=O)c1ccc2c(c1)[nH]c1ncnc(NCCC3CCNCC3)c12 [Cmpd 18] | 250 to 500
12 | COC(=O)c1ccc2c(c1)[nH]c1ncnc(NCCCN3CCOCC3)c12 [Cmpd 19] | > 1000
13 | COC(=O)c1ccc2c(c1)[nH]c1ncnc(N3CCC(N4CCCCC4)CC3)c12 [Cmpd 20] | 100 to 250
14 | Cn1nnc(-c2ccc3c(c2)[nH]c2ncnc(NCCCN4CCCCC4)c23)n1 [Cmpd 21] | 100 to 250
15 | COC(=O)c1ccc2c(c1)[nH]c1nc(Cc3cccnc3)nc(NCCCN3CCCCC3)c12 [Cmpd 22] | < 100
16 | COC(=O)c1ccc2c(c1)[nH]c1nc(Cc3ccncc3)nc(NCCCN3CCCCC3)c12 [Cmpd 23] | 250 to 500
17 | COC(=O)c1ccc2c(c1)[nH]c1nc(Cc3cnccn3)nc(NCCCN3CCCCC3)c12 [Cmpd 24] | 500 to 1000
18 | COC(=O)c1ccc2c(c1)[nH]c1nc(Cc3ccsc3)nc(NCCCN3CCCCC3)c12 [Cmpd 25] | < 100
19 | COC(=O)c1ccc2c(c1)[nH]c1nc(Cc3cc(Br)cc(I)c3)nc(NCCCN3CCCCC3)c12 [Cmpd 26] | < 100
20 | COC(=O)c1ccc2c(c1)[nH]c1nc(Cc3ccc4ccccc4c3)nc(NCCCN3CCCCC3)c12 [Cmpd 27] | 100 to 250
21 | COC(=O)c1ccc2c(c1)[nH]c1nc(C(OC)c3ccccc3)nc(NCCCN3CCCCC3)c12 (stereo not drawn) [Cmpd 28] | < 100
22 | COC(=O)c1ccc2c(c1)[nH]c1nc(C(C)c3ccccc3)nc(NCCCN3CCCCC3)c12 (stereo not drawn) [Cmpd 31] | < 100
23 | COC(=O)c1ccc2c(c1)[nH]c1nc(Cc3cccc(C4(C(F)(F)F)N=N4)c3)nc(NCCCN3CCCCC3)c12 [Cmpd 32] | < 100

Row | Structure (SMILES) | EC50 [nM]
24 | COC(=O)c1ccc2c(c1)[nH]c1nc(Cc3ccccc3)nc(NCCCN3CCCCC3)c12 [Cmpd 34] | < 100
25 | COC(=O)c1ccc2c(c1)[nH]c1nc(Cc3cccc(Br)c3)nc(NCCCN3CCCCC3)c12 [Cmpd 35] | < 100
26 | COC(=O)c1ccc2c(c1)[nH]c1nc(Cc3ccccc3C)nc(NCCCN3CCCCC3)c12 [Cmpd 36] | < 100
27 | COC(=O)c1ccc2c(c1)[nH]c1nc(Cc3ccc(C)cc3)nc(NCCCN3CCCCC3)c12 [Cmpd 37] | < 100
28 | COC(=O)c1ccc2c(c1)[nH]c1nc(Cc3cccc(OC)c3)nc(NCCCN3CCCCC3)c12 [Cmpd 38] | < 100
29 | COC(=O)c1ccc2c(c1)[nH]c1nc(Cc3cccc(C(=O)C(F)(F)F)c3)nc(NCCCN3CCCCC3)c12 [Cmpd 39] | < 100
30 | Cn1nnc(-c2ccc3c(c2)[nH]c2nc(Cc4ccccc4)nc(NCCCN4CCCCC4)c23)n1 [Cmpd 41] | < 100
31 | N#Cc1ccc2c(c1)[nH]c1nc(Cc3ccccc3)nc(NCCCN3CCCCC3)c12 [Cmpd 43] | 250 to 500
32 | CN(C)C1CCC(Nc2nc(Cc3ccccc3)nc3[nH]c4cc(-c5nnn(C)n5)ccc4c23)CC1 (stereo not drawn) [Cmpd 46] | < 100
33 | COC(=O)c1ccc2c(c1)[nH]c1nc(Cc3ccccc3)nc(OCCCN3CCCCC3)c12 [Cmpd 47] | 500 to 1000
34 | COC(=O)c1ccc2c(c1)[nH]c1nc(Cc3ccccc3)nc(NCCCN(C)CCOCCOCCO)c12 [Cmpd 49] | < 100
35 | COC(=O)c1ccc2c(c1)[nH]c1nc(Cc3ccccc3)nc(NCCCN(C)CCCN)c12 [Cmpd 50] | < 100
36 | COC(=O)c1ccc2c(c1)[nH]c1nc(Cc3ccccc3)nc(NCC(O)CN3CCCCC3)c12 (stereo not drawn) [Cmpd 51] | < 100
37 | C#CCOC(CNc1nc(Cc2ccccc2)nc2[nH]c3cc(C(=O)OC)ccc3c12)CN1CCCCC1 (stereo not drawn) [Cmpd 52] | < 100
38 | CCN(CCCN1CCCCC1)c1nc(Cc2ccccc2)nc2[nH]c3cc(C(=O)OC)ccc3c12 [Cmpd 53] | > 1000
39 | COC(=O)c1ccc2c(c1)[nH]c1nc(Cc3ccccc3)nc(NCCCN(C)CCCNC(=O)CCCC[C@@H]3SC[C@@H]4NC(=O)N[C@@H]43)c12 [Cmpd 56] | 250 to 500
40 | COC(=O)c1ccc2c(c1)[nH]c1nc(C)nc(NCCCN3CCCCC3)c12 [Cmpd 58] | > 1000
41 | CNC(=O)c1ccc2c(c1)[nH]c1nc(Cc3ccccc3)nc(NCCCN3CCCCC3)c12 [Cmpd 59] | > 1000
42 | COC(=O)c1cnc2c(c1)[nH]c1nc(Cc3ccccc3)nc(NCCCN3CCCCC3)c12 [Cmpd 60] | 250 to 500
43 | COC(=O)c1cnc2c(c1)[nH]c1nc(Cc3ccsc3)nc(NCCCN3CCCCC3)c12 [Cmpd 61] | 250 to 500
44 | COC(=O)c1cnc2c(c1)[nH]c1nc(Cc3ccsc3)nc(SCCCN3CCCCC3)c12 [Cmpd 62] | 500 to 1000
45 | COC(=O)c1cnc2c(c1)[nH]c1nc(Cc3cccc(OC)c3)nc(NCCCN3CCCCC3C)c12 (stereo not drawn) [Cmpd 63] | 250 to 500
46 | CCN(CC)CCNc1nc(Cc2cccc(OC)c2)nc2[nH]c3cc(C(=O)OC)cnc3c12 [Cmpd 64] | 500 to 1000

Row | Structure (SMILES) | EC50 [nM]
47 | COC(=O)c1cnc2c(c1)[nH]c1nc(Cc3ccccc3)nc(N(C)CCCN3CCCCC3)c12 [Cmpd 65] | < 100
48 | COC(=O)c1cnc2c(c1)[nH]c1nc(Cc3ccccc3C)nc(NCCCN3CCCCC3)c12 [Cmpd 66] | 250 to 500
49 | COC(=O)c1cnc2c(c1)[nH]c1nc(Cc3ccccc3C)nc(NCCCN3CCCC3)c12 [Cmpd 67] | 250 to 500
50 | CNCCCNc1nc(Cc2ccccc2C)nc2[nH]c3cc(C(=O)OC)cnc3c12 [Cmpd 68] | 500 to 1000
51 | Cn1nnc(-c2cnc3c(c2)[nH]c2nc(Cc4ccccc4)nc(N[C@H]4CC[C@H](N)CC4)c23)n1 [Cmpd 69] | 250 to 500
52 | COC(=O)c1cnc2c(c1)[nH]c1nc(Cc3cccc(F)c3)nc(NCCCN3CCCCC3)c12 [Cmpd 70] | > 1000
53 | COC(=O)c1cnc2c(c1)[nH]c1nc(Cc3cccc(F)c3)nc(NCCCN(C)CCCN)c12 [Cmpd 71] | 250 to 500
54 | CNCCCNc1nc(Cc2cccc(F)c2)nc2[nH]c3cc(C(=O)OC)cnc3c12 [Cmpd 72] | > 1000
55 | COC(=O)c1cnc2c(c1)[nH]c1nc(Cc3ccccc3)nc(NCC(C)CN(C)C)c12 (stereo not drawn) [Cmpd 73] | 500 to 1000
56 | COC(=O)c1cnc2c(c1)[nH]c1nc(Cc3ccccc3)nc(N3CCC(N(C)C)CC3)c12 [Cmpd 74] | 100 to 250
57 | CCN(CC)CCN(CC)c1nc(Cc2ccccc2)nc2[nH]c3cc(C(=O)OC)cnc3c12 [Cmpd 75] | 250 to 500
58 | COC(=O)c1ccc2c(c1)[nH]c1ccnc(NCCCN3CCCCC3)c12 [Cmpd 76] | > 1000
59 | COC(=O)c1ccc2c(c1)[nH]c1cc(Cc3ccccc3)nc(NCCCN3CCCCC3)c12 [Cmpd 77] | < 100
60 | COC(=O)c1ccc2c(c1)[nH]c1cc(Cc3ccccc3)nc(NCCN3CCCC3)c12 [Cmpd 78] | < 100
61 | COC(=O)c1ccc2c(c1)[nH]c1cc(Cc3ccccc3)nc(N(C)CCCN(C)C)c12 [Cmpd 79] | < 100
62 | Cn1nnc(-c2ccc3c(c2)[nH]c2cc(Cc4ccccc4)nc(NCCCN4CCCCC4)c23)n1 [Cmpd 80] | 100 to 250
63 | COC(=O)c1ccc2c(c1)[nH]c1cc(Cc3cccc(OC)c3)nc(NCCCCN3CCCC3)c12 [Cmpd 81] | < 100
64 | COC(=O)c1ccc2c(c1)[nH]c1cc(Cc3cccc(O)c3)nc(NCCCCN3CCCC3)c12 [Cmpd 82] | < 100
65 | COC(=O)c1ccc2c(c1)[nH]c1cc(Cc3ccsc3)nc(NCCN(C)CCNC(=O)OC(C)(C)C)c12 [Cmpd 83] | > 1000
66 | COC(=O)c1ccc2c(c1)[nH]c1cc(Cc3cccnc3)nc(NCCCN3CCOCC3)c12 [Cmpd 84] | 500 to 1000
67 | COC(=O)c1ccc2c(c1)[nH]c1cc(Cc3ccsc3)nc(NCCCN3CCCCC3)c12 [Cmpd 85] | 100 to 250
68 | COC(=O)c1ccc2c(c1)[nH]c1cc(Cc3cccnc3)nc(N3CCC(N4CCCC4)CC3)c12 [Cmpd 86] | > 1000
69 | CNCCCN(C)c1nc(Cc2cccnc2)cc2[nH]c3cc(C(=O)OC)ccc3c12 [Cmpd 87] | > 1000

Same assay, conditions: concentration that results in a 50% increase in CD34+CD45RA- cell count compared to vehicle cultures (DMSO)

Row | Structure (SMILES) | Biological data (EC50)*
70 | COC(=O)c1ccc2c(c1)[nH]c1nc(C(O)c3ccccc3)nc(NCCCN3CCCCC3)c12 (stereo not drawn) [Cmpd 29] | F (F = compound showed >1.3 fold expansion)
71 | COC(=O)c1ccc2c(c1)[nH]c1nc(C(=O)c3ccccc3)nc(NCCCN3CCCCC3)c12 [Cmpd 30] | F (F = compound showed >1.3 fold expansion)
72 | CCOC(=O)c1ccc2c(c1)[nH]c1nc(Cc3ccccc3)nc(NCCCN3CCCCC3)c12 [Cmpd 33] | F (F = compound showed >1.3 fold expansion)
73 | Cc1noc(-c2ccc3c(c2)[nH]c2nc(Cc4ccccc4)nc(NCCCN4CCCCC4)c23)n1.Cl [Cmpd 42] | F (F = compound showed >1.3 fold expansion)
74 | COC(=O)c1ccc2c(c1)[nH]c1nc(Cc3ccccc3)nc(CCCCN3CCCCC3)c12 [Cmpd 48] | F (F = compound showed >1.3 fold expansion)
75 | C#CCNCCCN(C)CCCNc1nc(Cc2ccccc2)nc2[nH]c3cc(C(=O)OC)ccc3c12 [Cmpd 54] | F (F = compound showed >1.3 fold expansion)
76 | COC(=O)c1ccc2c(c1)[nH]c1nc(Cc3cccc(C4(C(F)(F)F)N=N4)c3)nc(NCCCN(C)CCCNC(=O)CCCCC3SCC4NC(=O)NC43)c12 (stereo not drawn) [Cmpd 57] | F (F = compound showed >1.3 fold expansion)

Same assay, conditions: concentration that results in a 50% increase in CD34+CD45RA- cell count compared to vehicle cultures (DMSO); read-out: Biological data (EC50)*

Row | Structure (SMILES) | EC50 [nM]
77 | COC(=O)c1ccc2c(c1)[nH]c1ncnc(NC3CCC(N)CC3)c12 (stereo not drawn) [Cmpd 44] | 100 to 250
78 | COC(=O)c1ccc2c(c1)[nH]c1ncnc(NC3CCC(N)CC3)c12 (stereo not drawn) [Cmpd 45] | 250 to 500
